According to patent US20150231067A1, “METHOD AND COMPOSITION FOR TREATING HYPERGLYCEMIA” (MannKind Corporation, priority 2012, published 2015):

Experiments:
[1] = tested on: male ZDF rats; experiment: Food consumption after oxyntomodulin/FDKP powder; format: in vivo, rat; conditions: 0.15-0.9 mg oxyntomodulin as 30% powder, rats fasted 24 hr
Description: Male ZDF rats (10/group) were assigned to one of four groups.
Rats were allowed to eat after receiving the experimental dose. A predetermined amount of food was given to the rats and the amount of food the rats consumed was measured at various times after the start of the experiment.

[2] = literature evaluation; cited from earlier work
[3] = tested on: healthy adult male subjects
Description: Additional pulmonary safety and pharmacokinetic parameters were also evaluated. Pulmonary safety as expressed by the incidence of pulmonary and other adverse events and changes in pulmonary function between Visit 1 (Screening) and Visit 3 (Follow-up) was studied. […] Clinical trial endpoints were based on a comparison of the following pharmacological and safety parameters determined in the trial subject population. Primary endpoints included the incidence and severity of reported AEs, including cough and dyspnea, nausea and/or vomiting, as well as changes from screening in vital signs, clinical laboratory tests and physical examinations.

[4] = tested on: healthy adult male subjects; experiment: Phase 1a trial of GLP-1/FDKP inhalation powder: insulin, glucose and glucagon response; format: in vivo, human; conditions: 1.5 mg GLP-1; two of the six subjects; value that defines hypoglycemia
From the text: Dropouts were not replaced. These dosages assumed a body mass of 70 kg.

[5] = Deacon et al., cited from earlier work

Molecule	duration of significantly less food consumed than control rats [1]	time for plasma active GLP-1 to fall to the physiological range (after inhalation of GLP-1/FDKP powder)	metabolite peaks, intravenous compared to pulmonary administration (at comparable active concentrations)	active GLP-1 concentration in blood plasma above which profuse sweating, nausea and vomiting are typically observed [2]	subjects reporting symptoms of nausea, profuse sweating or vomiting ([3]; all doses, pulmonary)	inhibition of gastric emptying ([3]; pulmonary dry powder, data not shown)	glucose concentration lowered by GLP-1 [4]	degradation in the liver [5]	GLP-1 instantaneously metabolized in the vein ([5]; intravenous, pigs)	GLP-1 metabolized in the deoxygenated blood in the lung ([5]; intravenous, pigs)	extraction by the portal bed ([5]; intravenous, pigs)
oxyntomodulin	up to 6 hr	–	–	–	–	–	–	–	–	–	–
CC[C@H](C)[C@H](NC(=O)[C@H](Cc1ccccc1)NC(=O)[C@H](CCC(=O)O)NC(=O)[C@H](CCCCN)NC(=O)[C@H](C)NC(=O)[C@H](C)NC(=O)[C@H](CCC(N)=O)NC(=O)CNC(=O)[C@H](CCC(=O)O)NC(=O)[C@H](CC(C)C)NC(=O)[C@H](Cc1ccc(O)cc1)NC(=O)[C@H](CO)NC(=O)[C@H](CO)NC(=O)[C@@H](NC(=O)[C@H](CC(=O)O)NC(=O)[C@H](CO)NC(=O)[C@@H](NC(=O)[C@H](Cc1ccccc1)NC(=O)[C@@H](NC(=O)CNC(=O)[C@H](CCC(=O)O)NC(=O)[C@H](C)NC(=O)[C@@H](N)Cc1c[nH]cn1)[C@@H](C)O)[C@@H](C)O)C(C)C)C(=O)N[C@@H](C)C(=O)N[C@@H](Cc1c[nH]c2ccccc12)C(=O)N[C@@H](CC(C)C)C(=O)N[C@H](C(=O)N[C@@H](CCCCN)C(=O)NCC(=O)N[C@@H](CCCNC(=N)N)C(N)=O)C(C)C [GLP-1, GLP-1(7-36)amide]	–	≤ 9 min	8-9 fold greater	exceed 100 pmol/L	None of the subjects	lack inhibition of gastric emptying	below 3.5 mmol/L	45%	40%	10%	20%
